Twelve compounds from patent publication US8575391B2, “5-substituted-2-phenylamino benzamides as MEK inhibitors” (priority 2004, dated 2013) can be followed below.

One data set can be described thus: physchem. It counts as physicochemical. The settings on record: 50 mM phosphate buffer (pH 6.5), room temperature (20° C.), read-out: Water solubility.
Another data set can be described thus: in vitro. The format is in vitro ADME. The settings on record: liver microsomes; mouse liver microsome 1 mg protein/mL, 2 mM NADPH, pH 7.4, 37° C.; read-out: Stability against mouse liver microsome T1/2. In general terms: Microsomes from liver hold many membrane-bound enzymes, among them those of drug oxidation.
The mark [1] stands for this setting: aqueous buffer, thermodynamic from solid.

≈ marks a conversion by molar mass, not a printed value. Like-named read-outs stand apart in the source and are kept apart here.

As for `O=C(NOCCO)c1cc(COCCCO)c(F)c(F)c1Nc1ccc(I)cc1F` [Compound B-6, 3,4-difluoro-2-(2-fluoro-4-iodo-phenylamino)-N-(2-hydroxy-ethoxy)-5-(3-hydroxypropoxymethyl)-benzamide], the solubility (in general, the dissolved amount per volume that the medium holds) at 2 h in the data set “physchem” (setting [1]) amounted to 519 µM (≈ 280 µg/mL). Moreover, the half-life in the data set “in vitro” is > 6 h.
`CC(C)C(=O)NCCONCc1cc(C(=O)NOCCO)c(Nc2ccc(I)cc2F)c(F)c1F` [Compound C-35, 3,4-Difluoro-2-(2-fluoro-4-iodo-phenylamino)-N-(2-hydroxy-ethoxy)-5-[(2-isobutyrylamino-ethoxyamino)-methyl]-benzamide]: the solubility at 2 h in “physchem” (setting [1]) amounted to 219 µM (≈ 134 µg/mL). Besides, the half-life in “in vitro” was > 6 h.
Turning to `O=C(NOCCO)c1cc(CNOCCO)c(F)c(F)c1Nc1ccc(I)cc1F` [Compound C-1, 3,4-difluoro-2-(2-fluoro-4-iodo-phenylamino)-N-(2-hydroxy-ethoxy)-5-[(2-hydroxy-ethoxyamino)-methyl]-benzamide], the solubility at 2 h in the data set “physchem” is recorded as 606 µM (≈ 328 µg/mL). In addition, the half-life in “in vitro” turned out to be 2.15 h.
On to `CC(=O)NCCONCc1cc(C(=O)NOCCO)c(Nc2ccc(I)cc2F)c(F)c1F` [Compound C-7, 5-[(2-Acetylamino-ethoxyamino)-methyl]-3,4-difluoro-2-(2-fluoro-4-iodo-phenylamino)-N-(2-hydroxy-ethoxy)-benzamide], for which the solubility at 2 h in “physchem” (setting [1]) worked out at 582 µM (≈ 339 µg/mL). In addition, in the data set “in vitro”, the half-life is 2.13 h.
Take `C#Cc1ccc(Nc2c(C(=O)NOCCO)cc(CN3OCCC3=O)c(F)c2F)c(F)c1` [Compound G-5, 2-(4-Ethynyl-2-fluoro-phenylamino)-3,4-difluoro-N-(2-hydroxy-ethoxy)-5-(3-oxo-isoxazolidin-2-ylmethyl)-benzamide]: the solubility at 2 h in “physchem” (setting [1]) is 95 µM (≈ 42.7 µg/mL). In the data set “in vitro”, the half-life is > 6 h.
As for `CONCc1cc(C(=O)NOCCO)c(Nc2ccc(I)cc2F)c(F)c1F` [Compound C-24, 3,4-difluoro-2-(2-fluoro-4-iodo-phenylamino)-N-(2-hydroxy-ethoxy)-5-(methoxyamino-methyl)-benzamide], the solubility at 2 h in “physchem” (setting [1]) came out at 455 µM (≈ 233 µg/mL). In addition, in the data set “in vitro”, the half-life is 0.983 h.
Turning to `C#Cc1ccc(Nc2c(C(=O)NOCCO)cc(COCCO)c(F)c2F)c(F)c1` [Compound B-2, 2-(4-ethynyl-2-fluoro-phenylamino)-3,4-difluoro-N-(2-hydroxy-ethoxy)-5-(2-hydroxy-ethoxymethyl)-benzamide], in “physchem” (setting [1]), the solubility at 2 h came to 811 µM (≈ 344 µg/mL). In the data set “in vitro”, the half-life was > 6 h.
In the case of `CCC(=O)NCCONCc1cc(C(=O)NOCCO)c(Nc2ccc(I)cc2F)c(F)c1F` [Compound C-34, 3,4-Difluoro-2-(2-fluoro-4-iodo-phenylamino)-N-(2-hydroxy-ethoxy)-5-[(2-propionylamino-ethoxyamino)-methyl]-benzamide], the solubility at 2 h in “physchem” (setting [1]) came to 427 µM (≈ 255 µg/mL). The half-life in “in vitro” was 3.97 h.
As to `C#Cc1ccc(Nc2c(C(=O)NOCCO)cc(CNOCC(C)(C)O)c(F)c2F)c(F)c1` [Compound C-29, 2-(4-Ethynyl-2-fluoro-phenylamino)-3,4-difluoro-N-(2-hydroxy-ethoxy)5-[(2-hydroxy-2-methyl-propoxyamino)-methyl]-benzamide], the solubility at 2 h in “physchem” (setting [1]) is 237 µM (≈ 111 µg/mL). In “in vitro”, the half-life was > 6 h.
The matching figures for `C#Cc1ccc(Nc2c(C(=O)NOCCO)cc(CN(OC)C(C)=O)c(F)c2F)c(F)c1` [Compound F-7, 5-[(Acetyl-methoxy-amino)-methyl]-2-(4-ethynyl-2-fluoro-phenylamino)-3,4-difluoro-N-(2-hydroxy-ethoxy)-benzamide]: 550 µM (≈ 248 µg/mL) and 0.683 h.
On to `O=C(NOCCO)c1ccc(F)c(F)c1Nc1ccc(I)cc1F` [P, reference compound], for which the half-life in the data set “in vitro” is 0.133 h.
On to `C[S+]([O-])CCONCc1cc(C(=O)NOCCO)c(Nc2ccc(I)cc2F)c(F)c1F` (centres unmarked) [Compound C-31, 3,4-difluoro-2-(2-fluoro-4-iodo-phenylamino)-N-(2-hydroxy-ethoxy)-5-[(2-methanesulfinyl-ethoxyamino)-methyl]-benzamide], for which the solubility at 2 h in the data set “physchem” (setting [1]) was found to be 613 µM (≈ 360 µg/mL). The half-life in the data set “in vitro” was > 6 h.
